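Dose response: 5 concentrations. Exposure: 48 h. Format: 96-well plates. Endpoint: linear interpolation; highest concentration if not reached. GI50 = concentration required for 50% inhibition of growth.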 Active and inactive are the calls of the source. No stated cut-off is given here; in the data, active = GI50 up to about 1.1 µM and inactive = higher.
How the values were obtained:
Assay in all cases: DTP human tumour cell line panel, 48 h
[1] = test system: NCI-H23
[2] = test system: DMS-114
[3] = test system: OVCAR-3
[4] = test system: SNB-75
[5] = test system: NCI-H522
[6] = test system: CCRF-CEM
[7] = test system: ACHN
[8] = test system: SK-MEL-2
[9] = test system: MOLT-4
[10] = test system: HCC 2998
[11] = test system: RPMI-8226
[12] = test system: UACC-62
[13] = test system: COLO 205
[14] = test system: NCI-H460
[15] = test system: SW-620
[16] = test system: IGROV-1
[17] = test system: LOX IMVI
[18] = test system: XF498
[19] = test system: RXF 631
[20] = test system: M14
[21] = test system: 786-0
[22] = test system: K562
[23] = test system: Malme-3M
[24] = test system: SF-295
[25] = test system: EKVX
[26] = test system: A549
[27] = test system: SR
[28] = test system: OVCAR-4
[29] = test system: RXF 393
[30] = test system: SNB-19
[31] = test system: SN12C
[32] = test system: KM12
[33] = test system: SK-MEL-28
[34] = test system: HCT-15
[35] = test system: HCT-116
[36] = test system: SF-539
[37] = test system: SF-268
[38] = test system: U-251
[39] = test system: LXFL 529
[40] = test system: HL-60
[41] = test system: UO-31
[42] = test system: UACC-257
[43] = test system: SK-OV-3
[44] = test system: HT-29
[45] = test system: CAKI-1
[46] = test system: DMS-273
[47] = test system: TK-10
[48] = test system: OVCAR-8
[49] = test system: HOP-62
[50] = test system: HOP-92
[51] = test system: KM-20L2
[52] = test system: SK-MEL-5
[53] = test system: NCI-H226
[54] = test system: A498
[55] = test system: DLD-1
[56] = test system: SNB-78
[57] = test system: M19-MEL
[58] = test system: OVCAR-5

Measured: GI50

O=S(=O)(/C=C/C(=C/c1ccccc1)S(=O)(=O)c1ccccc1)c1ccccc1
inactive: [1] 1.93 µM | [2] 1.57 µM | [3] 1.73 µM | [4] 1.87 µM | [5] 1.45 µM | [7] 1.76 µM | [8] 1.89 µM | [9] 1.52 µM | [10] 1.95 µM | [12] 2.16 µM | [13] 2.16 µM | [14] 1.78 µM | [15] 2.04 µM | [16] 4.06 µM | [18] 1.7 µM | [20] 1.28 µM | [21] 1.77 µM | [23] 1.81 µM | [24] 1.66 µM | [25] 1.77 µM | [26] 2.13 µM | [27] 1.51 µM | [28] 1.67 µM | [29] 1.73 µM | [30] 1.78 µM | [31] 1.7 µM | [32] 2.16 µM | [33] 1.49 µM | [35] 1.72 µM | [36] 1.77 µM | [37] 1.91 µM | [38] 1.83 µM | [39] 1.7 µM | [41] 1.82 µM | [42] 1.55 µM | [43] 1.44 µM | [44] 1.73 µM | [45] 1.51 µM | [46] 1.52 µM | [47] 1.85 µM | [48] 1.63 µM | [49] 1.94 µM
active: [6] 0.778 µM | [11] 0.61 µM | [17] 0.658 µM | [19] 1.07 µM | [22] 1 µM | [40] 0.543 µM
1510 nM: [34]

O=c1[nH]c(-c2ccc(-c3nc4cc([N+](=O)[O-])ccc4c(=O)[nH]3)cc2)nc2cc([N+](=O)[O-])ccc12
> 100000 nM: [34]
inactive: [50] > 100 µM | [1] > 100 µM | [2] > 100 µM | [3] > 100 µM | [4] 42.1 µM | [5] > 100 µM | [6] > 100 µM | [7] > 100 µM | [8] > 100 µM | [9] > 100 µM | [51] > 100 µM | [10] > 100 µM | [11] > 100 µM | [12] > 100 µM | [52] > 100 µM | [13] > 100 µM | [14] > 100 µM | [15] > 100 µM | [16] > 100 µM | [17] > 100 µM | [19] > 100 µM | [20] > 100 µM | [21] 72.9 µM | [22] > 100 µM | [23] > 100 µM | [24] > 100 µM | [25] > 100 µM | [26] > 100 µM | [27] > 100 µM | [28] 48.8 µM | [29] > 100 µM | [30] > 100 µM | [31] > 100 µM | [53] > 100 µM | [32] > 100 µM | [33] > 100 µM | [54] 16 µM | [55] > 100 µM | [35] > 100 µM | [36] > 100 µM | [56] > 100 µM | [38] > 100 µM | [39] > 100 µM | [40] > 100 µM | [57] > 100 µM | [41] > 100 µM | [42] > 100 µM | [43] > 100 µM | [44] > 100 µM | [45] > 100 µM | [46] > 100 µM | [47] > 100 µM | [48] > 100 µM | [58] > 100 µM | [49] > 100 µM

Reference: ChEMBL document CHEMBL1201862, “PubChem BioAssay data set” (2004)
